From article PMC6982127, “GTP Binding Is Necessary for the Activation of a Toxic Mutant Isoform of the Essential GTPase ObgE” (International Journal of Molecular Sciences, 2019)
Where two headings read alike, the source gives them in different places.

Tests used:
Test in all cases: isothermal titration calorimetry
Type in all cases: binding
ObgE [1] = target: T1, ObgE (Escherichia coli, UniProt P42641, H234R)
T1 construct: full-length ObgE, N-terminal His6 tag (pET28a-obgE), expressed in E. coli BL21(DE3) pLysS, Ni-NTA and size exclusion, made nucleotide-free by alkaline phosphatase
Source text: (§1) isothermal titration calorimetry on ObgE

ObgE [2] = target: T2, ObgE (Escherichia coli, UniProt P42641, T174I)
T2 construct: full-length ObgE, N-terminal His6 tag (pET28a-obgE), expressed in E. coli BL21(DE3) pLysS, Ni-NTA and size exclusion, made nucleotide-free by alkaline phosphatase
Source text: as §1

ObgE [3] = target: T3, ObgE (Escherichia coli, UniProt P42641, E265K)
T3 construct: full-length ObgE, N-terminal His6 tag (pET28a-obgE), expressed in E. coli BL21(DE3) pLysS, Ni-NTA and size exclusion, made nucleotide-free by alkaline phosphatase
Source text: as §1

ObgE [4] = target: T4, ObgE (Escherichia coli, UniProt P42641, DEL153-156)
T4 construct: full-length ObgE, N-terminal His6 tag (pET28a-obgE), expressed in E. coli BL21(DE3) pLysS, Ni-NTA and size exclusion, made nucleotide-free by alkaline phosphatase
Source text: as §1

[5] = read-out: Equilibrium Dissociation Constants / KD(GDP)
[6] = read-out: Equilibrium Dissociation Constants / KD(GTPγS)
[7] = read-out: Equilibrium Dissociation Constants / KD(ppGpp)

T3 sequence (P42641 whole entry E265K): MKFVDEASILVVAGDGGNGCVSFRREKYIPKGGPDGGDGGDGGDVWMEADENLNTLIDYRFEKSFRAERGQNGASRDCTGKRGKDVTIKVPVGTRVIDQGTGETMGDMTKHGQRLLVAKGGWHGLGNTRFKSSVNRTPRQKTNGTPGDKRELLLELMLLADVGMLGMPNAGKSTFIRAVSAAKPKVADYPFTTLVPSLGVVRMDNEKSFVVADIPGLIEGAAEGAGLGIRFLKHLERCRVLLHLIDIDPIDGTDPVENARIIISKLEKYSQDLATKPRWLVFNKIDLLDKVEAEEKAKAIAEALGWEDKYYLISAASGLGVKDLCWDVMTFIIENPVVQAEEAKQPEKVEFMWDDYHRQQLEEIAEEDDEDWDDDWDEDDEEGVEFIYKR
T4 sequence (P42641 with tags, fused parts or gaps DEL153-156): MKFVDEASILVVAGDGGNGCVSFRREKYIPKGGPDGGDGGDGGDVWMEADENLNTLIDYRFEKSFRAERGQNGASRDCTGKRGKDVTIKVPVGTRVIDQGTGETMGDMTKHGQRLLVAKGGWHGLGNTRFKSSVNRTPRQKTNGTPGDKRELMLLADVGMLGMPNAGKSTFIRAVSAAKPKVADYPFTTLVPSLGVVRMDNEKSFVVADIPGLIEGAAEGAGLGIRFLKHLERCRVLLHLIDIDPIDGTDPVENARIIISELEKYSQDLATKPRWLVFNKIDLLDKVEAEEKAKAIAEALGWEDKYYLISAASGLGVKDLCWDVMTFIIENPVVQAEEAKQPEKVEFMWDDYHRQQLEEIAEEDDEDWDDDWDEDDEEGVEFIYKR
T2 sequence (P42641 whole entry T174I): as the sequence (P42641 whole entry E265K) above, with T174I, K265E counted along it
T1 sequence (P42641 whole entry H234R): as the sequence (P42641 whole entry E265K) above, with H234R, K265E counted along it

SMILES: Nc1nc2c(ncn2[C@@H]2O[C@H](COP(=O)(O)OP(=O)(O)O)[C@@H](O)[C@H]2O)c(=O)[nH]1 [GDP]
- Kd (ObgE [1]; [5]): 430 ± 50 nM
- Kd (ObgE [2]; [5]): 115000 ± 2000 nM
- Kd (ObgE [3]; [5]): 250 ± 30 nM
- Kd (ObgE [4]; [5]): 600 ± 50 nM

SMILES: Nc1nc2c(ncn2[C@@H]2O[C@H](COP(=O)(O)OP(=O)(O)OP(O)(O)=S)[C@@H](O)[C@H]2O)c(=O)[nH]1 [GTPγS]
- Kd (ObgE [1]; [6]): 3700 ± 500 nM
- Kd (ObgE [2]; [6]): 160000 ± 11000 nM
- Kd (ObgE [3]; [6]): 5700 ± 800 nM
- Kd (ObgE [4]; [6]): 3400 ± 500 nM

SMILES: Nc1nc2c(ncn2[C@@H]2O[C@H](COP(=O)(O)OP(=O)(O)O)[C@@H](OP(=O)(O)OP(=O)(O)O)[C@H]2O)c(=O)[nH]1 [ppGpp]
- Kd (ObgE [1]; [7]): 600 ± 60 nM
- Kd (ObgE [2]; [7]): 81000 ± 3000 nM
- Kd (ObgE [3]; [7]): 310 ± 30 nM
- Kd (ObgE [4]; [7]): 640 ± 60 nM
